This note sets out measurements from patent US8324234B2, “Method for inhibiting melanin production and whitening skin with pyrimidylpyrazole compounds or pharmaceutically acceptable salts thereof” (Shiseido Company Ltd., priority 2008, dated 2012).

The test system of the test is Mouse B16 melanoma cells. The test is described as follows: Melanin production inhibition test (quantification of melanin). Format: cell-based. As to conditions: for Inhibitory effect on melanin production: class of minimum non-cytotoxic concentration giving melanin amount 80% or less of solvent group, B16 cells, three days after addition; for Minimum concentration (%): minimum concentration at which an inhibitory effect on melanin production was significantly exhibited in melanoma B16 cells. As for the experimental part: A test for melanin production inhibition by the compounds of the formula (1) was conducted. The test method is as follows.
Melanin Production Inhibition Test
(1) Inoculation of Cells and Addition of Test Substances
Mouse B16 melanoma cells were inoculated in a six well plate at 100,000 cells/well. The next day, test substance solutions (solvent: DMSO) were added.
(3) Quantification of Melanin
The cells after the cell proliferation test were washed with PBS three times, and then lysed by addition of 200 μL of 1M NaOH to measure an absorbance at 475 nm. Using the value thus measured as a relative value of the melanin amount, a ratio of the melanin amount (%) of the test substance-added group to the test substance-absent group (group in which only the solvent was added) was calculated. The lower the ratio of the melanin amount, the higher the melanin production-inhibitory effect. […] The inhibitory effect on melanin production was evaluated according to the following criteria.
⊚: the minimum concentration for inhibition of melanin production was 1 ppm or less.
◯: the minimum concentration for inhibition of melanin production was more than 1 ppm and 10 ppm or less.

`Cc1cc(C)nc(-n2nc(C)cc2C)n1` [Compound 1, 2-(3,5-dimethylpyrazol-1-yl)-4,6-dimethylpyrimidine]: the “Inhibitory effect on melanin production” value is “⊚ (the minimum concentration for inhibition of melanin production was 1 ppm or less)” and the “Minimum concentration (%)” value was 1 × 10^−6%. On to `Cc1cc(C)nc(-n2nc(C)cc2C)n1.Cl` [Compound 2, 2-(3,5-dimethylpyrazol-1-yl)-4,6-dimethylpyrimidine hydrochloride], for which the “Inhibitory effect on melanin production” value is reported as “⊚ (the minimum concentration for inhibition of melanin production was 1 ppm or less)”. Take `CCc1cc(CC)n(-c2nc(C)cc(C)n2)n1` [Compound 3]: the “Inhibitory effect on melanin production” value is listed as “⊚ (the minimum concentration for inhibition of melanin production was 1 ppm or less)” and the “Minimum concentration (%)” value is 3 × 10^−6%. On the same counts, the results for `Cc1cc(C)nc(-n2nc(C)c(C)c2C)n1` [Compound 4] are “⊚ (the minimum concentration for inhibition of melanin production was 1 ppm or less)” and 3 × 10^−6%.

In the case of `Cc1cc(C)n(-c2nc(C)c(C)c(C)n2)n1` [Compound 5, 2-(3,5-dimethylpyrazol-1-yl)-4,5,6-trimethylpyrimidine], the “Inhibitory effect on melanin production” value is on record as “⊚ (the minimum concentration for inhibition of melanin production was 1 ppm or less)”.
